IC50 data for 2 compounds are collected here from publication PMC6728800, “Effect of piceatannol-rich passion fruit seed extract on human glyoxalase I–mediated cancer cell growth” (Biochemistry and Biophysics Reports, 2019).

The test concerns the target T1, human glyoxalase I (GLO I) (Homo sapiens, UniProt Q04760).
T1 construct: gene GLO1; recombinant GLO I
T1 sequence (Q04760 2-184): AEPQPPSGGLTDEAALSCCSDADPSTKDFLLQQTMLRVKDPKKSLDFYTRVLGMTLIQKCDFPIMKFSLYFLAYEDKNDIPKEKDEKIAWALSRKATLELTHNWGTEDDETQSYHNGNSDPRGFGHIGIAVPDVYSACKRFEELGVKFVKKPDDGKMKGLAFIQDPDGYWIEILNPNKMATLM
The test is described as follows: spectrophotometric assay of S-D-lactoylglutathione formation at […] nm with recombinant GLO I. The class given is biochemical.

Each structure is given as a SMILES string. Where two headings read alike, the source gives them in different places.

`Oc1cc(O)cc(/C=C/c2ccc(O)c(O)c2)c1` [piceatannol]: the IC50 (commonly the midpoint of a concentration-inhibition curve) is 0.75 µM.
With `Oc1cc(O)cc(C2c3c(/C=C/c4ccc(O)c(O)c4)cc(O)cc3OC2c2ccc(O)c(O)c2)c1` (centres unmarked) [scirpusin B], the IC50 (read-out: IC50) was determined as 4.2 µM.
